Data reported in patent US9539260B2, “Dihydro-benzo-oxazine and dihydro-pyrido-oxazine derivatives” (Novartis AG, priority 2012, dated 2017).
pIC50: −log10 of the molar value.

Key:
PI3K alpha = PI3K alpha (Homo sapiens (Human), UniProt P42336); assay: Enzymatic PI3K alpha isoform inhibition (lipid kinase activity, Kinase-Glo luminescence); type: biochemical; conditions: Enzymatic assay
Summary of the method: (§1)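 IC50s derive from 4-parameter logistic fits of % inhibition across 8 concentrations (usually 10 to 0.003 μM). Lipid kinase reaction: PI3K (10 nM) plus phosphatidylinositol (5 μg/mL) started with 2 μM ATP, stopped near 50% ATP depletion; leftover ATP quantified by Kinase-Glo luminescence.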

[1] = system: rat B cells derived from whole blood; assay: Determination of rat B cell activation in whole blood (CD86 upregulation after anti-IgM and rIL-4); type: cell-based; conditions: anti-IgM + rIL-4 stimulation, CD86 on CD45RA+ B cells, read-out: RWB/IC50 CD86
Description: 2.3 Determination of Rat B Cell Activation
PI3Kδ has been recognized to modulate B cell function when cells are stimulated through the B cell receptor (BCR) (Okkenhaug et al. Science 297:1031 (2002). For assessing the inhibitory property of compounds on B cell activation, the upregulation of activation markers CD86 on rat B cells derived from whole blood is measured after stimulation with anti-IgM and recombinant IL-4. The CD86 molecule (also known as B7-2) is primarily expressed on antigen-presenting cells, including B cells. Resting B cells express CD86 at low levels, but upregulate it following stimulation of e.g. the BCR or IL-4 receptor. CD86 on a B cell interacts with CD28 on T cells. This interaction is required for optimal T cell activation and for the generation of an optimal IgG1 response (Carreno et al. Annu Rev Immunol. 20:29 (2002)).
Whole blood was collected from the abdominal aorta adult male Lewis rats (LEW/HanHsd) oby using a 10 ml syringe with hypodermic needle pre-coated with sodium heparin. Blood was transferred into 50 ml Falcon tubes and the anticoagulant concentration was adjusted to 100 U/ml.
For assessment of the in vitro effects of immunosuppressive drugs, heparinized blood was prediluted to 50% with medium. As medium served DMEM high glucose (Animed cat#1-26F01-I) supplemented with 100 U/ml penicillin, […], 2 mM L-glutamin, 50 mg/ml dextran 40 and 5% fetal calf serum (FCS, Fetaclone I, Gibco #10270-106). Then, 190 μl prediluted blood was spiked with 10 μl of pre-diluted test compound in 96 well U-bottomed microtiter plates (Nunc) resulting in a 3-fold serial dilution with a concentration range from 20 to 0.0003 μM. Control wells were pretreated with DMSO to obtain a final concentration of 0.5% DMSO. Cultures were set up in duplicates, mixed well by agitation on a plate shaker (Heidolph Titramax 101; 30 sec, speed 900), pipetting up and down and agitated on the plate shaker again. Cultures were incubated at 37° C., 5% CO2 for 1 hr. Then, 20 μl of polyclonal goat anti-rat IgM Ab (Serotec, cat#302001) and 10 μl of diluted recombinant rIL-4 (Immunotools #340085) were added to obtain final concentrations of 30 μg/ml and 5 ng/ml, respectively. Plates were mixed by agitation on a plate shaker as above and incubated for 24 hrs at 37° C., 5% CO2.
After incubation, 15 μl of a 25 mM EDTA solution was added per well and shaken for 15 min to detach adherent cells. For analysis of surface activation markers, samples were then stained with PE-Cy5-labeled anti-ratCD45RA (BD cat#557015) to allow gating on B cells in FACS analysis. In addition, samples were stained with PE-labeled anti-rat CD86 (BD cat#551396). All staining procedures were performed at rt for 30 min in the dark. After incubation, samples were transferred to 96-deep well V-bottomed microtiter plates (Corning #396096) containing 2 ml/well of BD Lysing Solution (BD #349202). After lysis of erythrocytes samples were washed with 2 ml of CellWASH (BD #349524). Data was acquired on an LSRII or FACScalibur flow cytometer (BD Biosciences) using Cellquest Plus or DIVA (version 6.1.1) software, respectively. Lymphocytes were gated in the FSC/SSC dot blot according to size and granularity and further analyzed for expression of CD45RA and activation markers. Data were calculated from dot blots or histograms as percentage of cells positively stained for activation markers within the CD45RA+ population.
The percentage inhibition of B cell activation after exposure to drug was calculated by the following formula: […]
ORIGIN 7 software (OriginLab Corporation, Northampton, Mass.) was used for non-linear regression curve fitting.

PI3K delta = PI3K delta (Homo sapiens (Human), UniProt O00329); assay: Enzymatic PI3K delta isoform inhibition (lipid kinase activity, Kinase-Glo luminescence); type: biochemical; conditions: Enzymatic assay
Summary of the method: as §1

[2] = biological target: myristoylated catalytic subunit of human PI3K delta in Rat-1 cells (Homo sapiens (Human), UniProt O00329); assay: PI3K-mediated Akt 1/2 (S473) phosphorylation in Rat-1 cells, PI3K delta; type: cell-based; conditions: Rat-1 cells overexpressing myristoylated human PI3K delta; p-Akt (S473) AlphaScreen SureFire; read-out: Cell PI3Kδ/ IC50
Description: 2.1 Phosphoinositide-3 Kinase (PI3K)-Mediated Akt 1/2 (S473) Phosphorylation in Rat-1 Cells
Rat-1 cells stably overexpressing a myristoylated form of the catalytic subunit of human phosphoinositide-3 kinase (PI3K) alpha, beta or delta were plated in 384-well plates at a density of 7500 (PI3K alpha), 6200 (PI3K beta), or 4000 (PI3K delta) cells in 30 ul complete growth medium (Dulbecco's modified Eagle's medium (DMEM high glucose) supplemented with 10% (v/v) fetal bovine serum, 1% (v/v) MEM non essential amino acids, 10 mM HEPES, 2 mM L-glutamine, 10 μg/mL puromycin and 1% (v/v) Penicillin/Streptomycin) and were incubated at […]/5% CO2/95% humidity for 24 h. Compounds were diluted in 384-well compound plates to obtain 8-point serial dilutions for 40 test compounds in 90% DMSO, as well as 4 reference compounds plus 16 high controls and 16 low (inhibited) controls. Predilution plates were prepared by dispensing pipetting 250 nl of compound solutions into 384-well polypropylen plates using a Hummingwell nanoliter dispensor. Compounds were prediluted by the addition of 49.75 ul complete growth medium. 10 ul of prediluted compound solution were transferred to the cell plate using a 384-well pipettor, resulting in a final DMSO concentration of 0.11%.
Cells were incubated for 1 h at […]/5% CO2/95% humidity. The supernatant was removed, the cells were lysed in 20 ul of lysis buffer for AlphaScreen® SureFire® detection.
For detection of p-AKT(Ser473), the SureFire® p-Akt 1/2 (Ser473) Assay Kit (PerkinElmer, U.S.A) was used. 5 ul of cell lysate was transferred to 384-well low volume Proxiplates for detection using a 384-well pipettor. Addition of AlphaScreen® SureFire® reagents was done according to the manufacturer's protocol. First, 5 ul of reaction buffer plus activation buffer mix containing AlphaScreen® acceptor beads was added, the plate was sealed, and incubated on a plate shaker for 2 hours at room temperature. Second, 2 ul of dilution buffer containing AlphaScreen® donor beads was added, and the plate was incubated on plate shaker as above for a further 2 hours. The plate was read on an AlphaScreen® compatible plate reader, using standard AlphaScreen® settings.

PI3K delta, sequence (O00329 other isoform, or with tags, fused parts or gaps linker GGGGGG): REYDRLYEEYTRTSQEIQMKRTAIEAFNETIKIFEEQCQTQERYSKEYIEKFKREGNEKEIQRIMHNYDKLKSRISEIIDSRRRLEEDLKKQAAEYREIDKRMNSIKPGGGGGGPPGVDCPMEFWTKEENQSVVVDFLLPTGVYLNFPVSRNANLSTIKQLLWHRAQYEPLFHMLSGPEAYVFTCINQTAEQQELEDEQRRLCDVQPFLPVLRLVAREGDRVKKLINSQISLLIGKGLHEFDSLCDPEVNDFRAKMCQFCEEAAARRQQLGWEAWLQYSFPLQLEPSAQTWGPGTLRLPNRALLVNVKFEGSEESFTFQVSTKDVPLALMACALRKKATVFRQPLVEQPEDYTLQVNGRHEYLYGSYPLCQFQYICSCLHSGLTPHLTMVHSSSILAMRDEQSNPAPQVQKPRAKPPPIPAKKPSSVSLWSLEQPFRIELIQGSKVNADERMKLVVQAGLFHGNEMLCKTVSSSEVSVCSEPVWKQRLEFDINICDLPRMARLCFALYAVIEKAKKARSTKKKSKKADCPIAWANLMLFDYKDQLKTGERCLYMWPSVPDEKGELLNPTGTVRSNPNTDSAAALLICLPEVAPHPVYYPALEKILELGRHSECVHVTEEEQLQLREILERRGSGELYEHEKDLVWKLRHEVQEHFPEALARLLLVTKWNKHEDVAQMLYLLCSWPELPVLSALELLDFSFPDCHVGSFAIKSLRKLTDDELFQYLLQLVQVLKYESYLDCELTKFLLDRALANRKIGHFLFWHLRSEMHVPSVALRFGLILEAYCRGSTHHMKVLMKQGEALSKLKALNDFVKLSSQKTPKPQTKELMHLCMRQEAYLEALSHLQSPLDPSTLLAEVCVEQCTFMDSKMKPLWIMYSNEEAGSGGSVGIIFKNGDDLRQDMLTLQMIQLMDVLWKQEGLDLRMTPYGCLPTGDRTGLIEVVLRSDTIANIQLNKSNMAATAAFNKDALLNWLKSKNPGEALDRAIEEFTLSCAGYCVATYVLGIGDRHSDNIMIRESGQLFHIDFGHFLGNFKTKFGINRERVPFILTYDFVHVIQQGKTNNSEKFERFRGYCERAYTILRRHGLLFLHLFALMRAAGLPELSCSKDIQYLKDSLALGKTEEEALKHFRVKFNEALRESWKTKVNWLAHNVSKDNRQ
PI3K alpha, sequence (P42336 other isoform, or with tags, fused parts or gaps): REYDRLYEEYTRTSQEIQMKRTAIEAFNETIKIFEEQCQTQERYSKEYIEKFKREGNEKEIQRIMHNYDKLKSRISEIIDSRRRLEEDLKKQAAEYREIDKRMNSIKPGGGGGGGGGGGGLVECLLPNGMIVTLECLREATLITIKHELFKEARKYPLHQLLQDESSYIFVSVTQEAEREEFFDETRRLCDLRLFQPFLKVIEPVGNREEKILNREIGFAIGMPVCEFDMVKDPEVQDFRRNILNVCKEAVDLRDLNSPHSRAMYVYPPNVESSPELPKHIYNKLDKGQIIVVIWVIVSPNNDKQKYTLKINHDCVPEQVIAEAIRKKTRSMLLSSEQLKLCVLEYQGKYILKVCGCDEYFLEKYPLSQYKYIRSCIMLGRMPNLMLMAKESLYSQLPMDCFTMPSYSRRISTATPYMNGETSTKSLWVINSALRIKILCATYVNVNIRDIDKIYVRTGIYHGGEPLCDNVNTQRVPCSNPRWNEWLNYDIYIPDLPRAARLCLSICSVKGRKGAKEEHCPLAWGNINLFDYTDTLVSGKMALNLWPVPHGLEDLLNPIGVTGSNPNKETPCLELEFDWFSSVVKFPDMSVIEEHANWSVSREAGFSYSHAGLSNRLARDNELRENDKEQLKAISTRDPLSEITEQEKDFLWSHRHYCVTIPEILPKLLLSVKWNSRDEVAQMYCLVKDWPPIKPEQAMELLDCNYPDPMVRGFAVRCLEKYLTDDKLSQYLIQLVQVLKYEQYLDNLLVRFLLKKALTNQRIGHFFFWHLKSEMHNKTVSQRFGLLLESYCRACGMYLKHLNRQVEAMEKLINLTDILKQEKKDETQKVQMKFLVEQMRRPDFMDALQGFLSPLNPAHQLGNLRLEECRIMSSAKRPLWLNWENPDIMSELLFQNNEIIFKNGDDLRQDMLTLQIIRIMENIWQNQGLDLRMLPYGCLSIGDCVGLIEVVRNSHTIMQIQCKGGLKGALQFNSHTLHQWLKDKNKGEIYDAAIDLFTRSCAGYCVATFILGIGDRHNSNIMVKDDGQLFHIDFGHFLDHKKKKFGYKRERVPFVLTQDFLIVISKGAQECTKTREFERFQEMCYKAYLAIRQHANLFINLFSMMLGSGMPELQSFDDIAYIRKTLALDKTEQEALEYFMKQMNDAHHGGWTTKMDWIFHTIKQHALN
myristoylated catalytic subunit of human PI3K delta in Rat-1 cells, sequence (O00329 whole entry): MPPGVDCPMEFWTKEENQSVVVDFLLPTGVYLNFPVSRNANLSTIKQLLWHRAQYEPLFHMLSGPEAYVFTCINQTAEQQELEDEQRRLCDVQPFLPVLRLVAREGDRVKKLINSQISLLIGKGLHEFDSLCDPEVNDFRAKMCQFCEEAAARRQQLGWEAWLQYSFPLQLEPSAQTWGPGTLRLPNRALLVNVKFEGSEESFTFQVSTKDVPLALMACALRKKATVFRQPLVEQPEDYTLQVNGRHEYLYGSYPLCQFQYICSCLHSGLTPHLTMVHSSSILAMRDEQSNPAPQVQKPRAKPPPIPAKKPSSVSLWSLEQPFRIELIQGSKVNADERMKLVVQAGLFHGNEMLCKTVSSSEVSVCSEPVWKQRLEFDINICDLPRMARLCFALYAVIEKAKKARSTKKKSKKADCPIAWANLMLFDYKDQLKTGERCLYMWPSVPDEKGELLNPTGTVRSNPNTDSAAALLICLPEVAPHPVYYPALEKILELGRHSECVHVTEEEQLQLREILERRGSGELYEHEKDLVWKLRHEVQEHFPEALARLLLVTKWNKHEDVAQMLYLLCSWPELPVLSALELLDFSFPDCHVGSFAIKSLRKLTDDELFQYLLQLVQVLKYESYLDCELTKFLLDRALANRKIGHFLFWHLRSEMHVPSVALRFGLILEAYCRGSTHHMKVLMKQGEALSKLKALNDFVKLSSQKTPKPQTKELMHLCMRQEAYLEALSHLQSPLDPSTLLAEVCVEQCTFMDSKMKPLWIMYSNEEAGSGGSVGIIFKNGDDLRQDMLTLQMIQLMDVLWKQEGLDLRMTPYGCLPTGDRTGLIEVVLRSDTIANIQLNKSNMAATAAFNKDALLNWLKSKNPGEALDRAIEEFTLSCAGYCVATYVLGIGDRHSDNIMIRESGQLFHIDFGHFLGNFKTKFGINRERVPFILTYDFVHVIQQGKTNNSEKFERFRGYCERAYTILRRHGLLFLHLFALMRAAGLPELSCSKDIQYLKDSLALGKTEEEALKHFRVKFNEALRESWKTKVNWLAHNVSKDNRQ

| SMILES | pIC50 (PI3K alpha) | pIC50 [1] | pIC50 (PI3K delta) | pIC50 [2] |
| --- | --- | --- | --- | --- |
| COc1ncc(N2CCOc3ccc(O[C@H]4CCN(C(=O)C5CCOCC5)C4)cc32)cc1C#N [Example C1, 2-Methoxy-5-{6-[(S)-1-(tetrahydro-pyran-4-carbonyl)-pyrrolidin-3-yloxy]-2,3-dihydro-benzo[1,4]oxazin-4-yl}-nicotinonitrile] | 6.52 | 7.17 | 7.72 | 7.09 |
| COc1ncc(N2CCOc3cnc(O[C@H]4CCN(C(=O)c5cn(C)cn5)C4)cc32)cc1C [Example E1, {(S)-3-[1-(6-Methoxy-5-methyl-pyridin-3-yl)-2,3-dihydro-1H-pyrido[3,4-b][1,4]oxazin-7-yloxy]-pyrrolidin-1-yl}-(1-methyl-1H-imidazol-4-yl)-methanone] | 7.01 | 7.11 | 8.40 | 8.15 |
| COc1ncc(N2CCOc3cnc(O[C@H]4CCN(C(=O)C5CCOCC5)C4)cc32)cc1C [Example E3, {(S)-3-[1-(6-Methoxy-5-methyl-pyridin-3-yl]-2,3-dihydro-1H-pyrido[3,4-b][1,4]oxazin-7-yloxy]-pyrrolidin-1-yl}-(tetrahydro-pyran-4-yl)-methanone] | 6.31 | 7.85 | > 8.52 | 7.74 |
| COc1ncc(N2CCOc3cnc(O[C@H]4CCN(C(=O)C5CCS(=O)(=O)CC5)C4)cc32)cc1C(F)F [Example F7, {(S)-3-[1-(5-Difluoromethyl-6-methoxy-pyridin-3-yl)-2,3-dihydro-1H-pyrido[3,4-b][1,4]oxazin-7-yloxy]-pyrrolidin-1-yl}-(1,1-dioxo-hexahydro-1lambda*6*-thiopyran-4-yl)-methanone] | 7.15 | 7.40 | > 8.52 | 7.74 |
